Measured values reported in patent US20190202836A1, “SELECTIVE DUAL INHIBITORS OF PI3 DELTA AND GAMMA PROTEIN KINASES” (Rhizen Pharmaceuticals SA, priority 2014, published 2019).

System: male Balb/c mice
Experiment: Assay 13: Imiquimod induced plaque psoriasis in Balb/c mice model
Format: in vivo
Conditions: imiquimod induced psoriasis, 3, 10, 30 mg/kg oral, compared to the control group
Procedure: Imiquimod (IMQ) is a ligand for TLR7 and TLR8, originally used for the treatment of non-melanoma skin cancers. […] Animals (male Balb/c mice) were acclimatized for seven days prior to the start of the experiment. Animals were randomly distributed to various groups based on their body weights. On day 0, the back skin of the mice was shaved by topical application of hair removal cream. On day 1, mice were administered the test compound or vehicle by the oral route and after 1 hour the […] received a topical application of 62.5 mg of commercially available IMQ cream (5%; Beselna Cream; Mochida Pharmaceuticals, Tokyo, Japan) on the shaved back skin. The mice were treated with topical application of imiquimod for the next 5 consecutive days, one hour after test compound or vehicle administration. Animals were allowed to dry for one hour before returning to their cages after topical application on every day. Four hours after the final application of IMQ cream, the mice were killed and skin samples were obtained. Back skin thickness was measured using dial thickness gauge. After measuring skin thickness, skin samples were fixed in 10% neutral buffered formalin solution and embedded in paraffin. Deparaffinised sections were stained with hematoxylin-eosin (HE). Epidermal thickness was quantified by averaging the values of five independent fields per section. To score the severity of inflammation of the back skin, an objective scoring system was used based on the human clinical Psoriasis Area and Severity Index (PASI). Erythema, scaling, and thickening were scored independently on a scale from 0 to 4: 0=none; 1=slight; 2=moderate; 3=marked; and 4=very marked.

COc1ccc(-c2nn([C@@H](C)c3oc4cccc(F)c4c(=O)c3-c3cccc(F)c3)c3ncnc(N)c23)cc1NS(C)(=O)=O [Compound A1, (S)—N-(5-(4-amino-1-(1-(5-fluoro-3-(3-fluorophenyl)-4-oxo-4H-chromen-2-yl)ethyl)-1H-pyrazolo[3,4-d]pyrimidin-3-yl)-2-methoxyphenyl)methanesulfonamide]
reduced: back skin thickness | erythema | scaling
